Source: patent US9199978B2, “Acrylamide compounds and use thereof for inhibiting apoptosis” (CHINESE PLA GENERAL HOSPITAL, priority 2010, dated 2015)

Assays:
Format in all cases: cell-based, Wistar sucking mice
[1] = test system: cardiomyocyte apoptosis induced by anoxia; test: Protection against anoxia-induced cardiomyocyte apoptosis (HCS fluorescence staining); conditions: for Nucleus area (%): Hoechst staining; for Mitochondrial transmembrane potential: MitoTracker Red
Method: (§1) The isolation and culture of cardiomyocytes were performed by referring to the differential adhesion method (Kreider, A. Messing, H. Doan, S. U. Kim, R. P. Lisak and D. E. Pleasure, Enrichment of Schwann cell cultures from neonatal rat sciatic nerve by differential adhesion, Brain Res 2 (1981), pp. 433-444). Wistar sucking mice newborn within 24 h were used, sterilized at skin of ventrum with iodine tincture and ethanol, subjected to thoracotomy using scissors at subxiphoid median line with a deviation to left, heart was taken out after slant thoracotomy and placed in PBS precooled with ice; the heart was softly blown and beaten with 0.01 M PBS to remove blood cells and other tissues, then cut into pieces with 0.5 mm^3 size, washed with 0.01 M PBS repeatedly for 2-3 times; the pieces were placed in conical flask, added with 4 ml of 0.125% pancretin, 1 ml of 0.1% collagenase II (final concentrations separately being 0.1% and 0.02%), shaken in 37° C. water bath for 10 min, the supernatant was discarded; then 4 ml of 0.125% pancretin and 1 ml of 0.1% collagenase II again, shaken in 37° C. water bath for digestion for 10 min, the supernatant was sucked and transferred to a centrifuge tube, and the supernatant was added with DMEM containing 10% FBS to terminate digestion; the step of shaking and digestion in water bath was repeated for 3-4 times, until the tissue pieces were completely digested; the collected cell suspension was centrifuged under 1000 rpm for 10 min, the supernatant was removed, then a culture medium was added for resuspension; the resuspended cells were inoculated in a cell culture flask, placed in CO2 incubator at 37° C. for incubation for 1.5 h, then the culture medium was sucked out, countered under microscope, then DMEM culture medium containing 10% FBS was used to adjust cell density, inoculated in an amount of 1×10^4 to a 96-well plate, placed in 5% CO2 incubator at 37° C. for 24 h, then half medium was replaced, a culture medium containing 0.1% Brdu was supplementally added; then the medium was replaced once per 48 h, and primary cardiomyocytes were obtained after 4 days of cultivation.
Cardiomyocyte was obtained by primary culture according to Example 18, cell density 10^4/mL, each wall was added with 100 μL of suspension of the cells. The cells were incubated at 37° C., 5% CO2 environment for 96 h (replacing solution once per 48 h). After primary culture for 4 days, cell apoptosis was induced by placing in an anoxia incubator, the compounds of the present invention at different concentrations were added for pretreatment 30 min before inducing cell apoptosis, then placed in 37° C., 5% CO2-95% N2 incubator and cultured for 15.5 h. It was 30 min before the compound incubation finished, 50 μL of culture medium, 50 μL of Mitotracker/Hoechst solution, were added, and the cells were then continuously cultured at 37° C., 5% CO2-95% N2 for 30 min.
Each well was directly added with 100 μL of fixing solution, without sucking out the culture medium, incubated at room temperature in fume cupboard for 10 min. The pre-heated fixing solution was very important for keeping cell integrity.
The solution of each well was sucked out (the plate could be turned over), washed with 1× Wash Buffer (100 μL/well) once. Carefulness was kept during operation and washing procedure to maintain cell adhesion and integrity. Good results could be obtained by slowly sucking and releasing liquid. Wash Buffer was sucked out, 1× penetrating membrane solution (100 uL/well) was added, incubated at room temperature for 15 min. The penetrating membrane solution was sucked out, each well was washed once with 100 μL/well of 1× Wash Buffer. The Wash Buffer was sucked out, each well was added with 50 μL of Alexa Fluor 488 Phalloidin Solution, incubated at room temperature in dark for 30 min. The Alexa Fluor 488 Phalloidin solution was sucked out, washed with 1× Wash Buffer for three times, and the solution of the last time was kept in the well. […]

cardiomyocytes = test: Measurement of cell inhibition rate (MTT) on normal primary cardiomyocytes; conditions: 48 h; for inhibition at 300 µM: Cardiomyocyte; for Inhibition rate (%) of cardiomyocytes: 300 μM
Method: as §1
The isolated primary culture of cardiomyocytes was inoculated in an amount of 10^4 cells per well to a 96-well plate, and the volume of each well was 100 μl (marginal wells were filled with sterile PBS). […] After continuous inoculation for 48 h, each well was added with 20 μl of MTT solution (5 mg/ml, formulated with PBS (pH=7.4), i.e., 0.5% MTT), and the cultivation was continued for 4 h. After the end of cultivation, culture medium in wells was carefully sucked out. Each well was added with 150 μl of DMSO, shaken at a low speed in a shaking table for 10 min, so that the crystal was sufficiently dissolved. The optical density (OD) value of each well was measured at wavelength of 550 nm by enzyme-linked immunoassay instrument, and each well was repeatedly measured for 5 times and the results were recorded.

[2] = test system: TG-induced cardiomyocytes apoptosis; test: Protection against TG-induced cardiomyocyte apoptosis (MTT)
Method: as §1
The isolated primary culture of cardiomyocytes was inoculated in an amount of 10^4 cells per well to a 96-well plate, and the volume of each well was 100 μl (marginal wells were filled with sterile PBS). After being cultivated in 5% CO2 and 37° C. incubator for 4 d, they were added with the compound of Formula I at different concentrations (0.3 μM, 1 μM, 3 μM, 10 μM, 30 μM, 100 μM), 3 double-wells were set for each concentration, at the same time, zero setting wells (culture medium, MTT, DMSO), and control wells (culture medium, DMSO) were also set. After continuous inoculation for 48 h, each well was added with 20 μl of MTT solution (5 mg/ml, formulated with PBS (pH=7.4), i.e., 0.5% MTT), and the cultivation was continued for 4 h. After the end of cultivation, culture medium in wells was carefully sucked out. Each well was added with 150 μl of DMSO, shaken at a low speed in a shaking table for 10 min, so that the crystal was sufficiently dissolved. The optical density (OD) value of each well was measured at wavelength of 550 nm by enzyme-linked immunoassay instrument, and each well was repeatedly measured for 5 times and the results were recorded.
Cardiomyocytes were subjected to the primary culture for 4 days according to the above method, and then added with thapsigargin (TG) to induce apoptosis. The compound of the present invention was added for pretreatment 30 min before inducing apoptosis. […] TG was formulated with DMSO, the mother liquid was of 4 mM; and the compound of the present invention was formulated with DMSO, and the mother liquid was of 150 mM. The cell survival rate was measured according to the above MTT method, so as to test the protection effects of the compound of the present invention on the TG-induced cardiomyocytes apoptosis, and the results are shown in Table 2. […]

[3] = compound 0.3 μM + TG 0.4 uM, pretreatment 30 min
[4] = compound 1 μM + TG 0.4 uM, pretreatment 30 min
[5] = compound 3 μM + TG 0.4 uM, pretreatment 30 min
[6] = compound 10 μM + TG 0.4 uM, pretreatment 30 min

Compound: O=C(/C=C/c1cccs1)NC(NC(=S)Nc1cccc2cccnc12)C(Cl)(Cl)Cl (stereo not drawn) [Example 1, (2E)-3-(2-thienyl)-N-[1-(8-quinolylamino)thioformylamino-2,2,2-trichloroethyl]-2-acrylamide]
- light flux ([1]; 10 μM): 1201.92 ± 29.95
- Nucleus area (%) ([1]; 10 μM): 112.61 ± 7.78%
- Mitochondrial transmembrane potential ([1]; 10 μM): 112.68 ± 1.46

Compound: COc1ccccc1NC(=S)NC(NC(=O)/C=C/c1cccs1)C(Cl)(Cl)Cl (stereo not drawn) [Example 4, (2E)-3-(2-thienyl)-N-[1-(2-methoxyanilino)thioformylamino-2,2,2-trichloroethyl]-2-acrylamide]
- inhibition at 300 µM (cardiomyocytes): 5.55 ± 2.29%

Compound: O=C(/C=C/c1cccs1)NC(NC(=S)NCc1ccccc1)C(Cl)(Cl)Cl (stereo not drawn) [Example 5, (2E)-3-(2-thienyl)-N-(1-benzylaminothioformylamino-2,2,2-trichloroethyl)-2-acrylamide]
- Survival rate (%) of Cardiomyocyte [2, 3]: 82 ± 4%
- Survival rate (%) of Cardiomyocyte [2, 4]: 76 ± 8%
- Survival rate (%) of Cardiomyocyte [2, 5]: 74 ± 9%
- inhibition at 300 µM (cardiomyocytes): 0.76 ± 4.04%
- light flux ([1]; 0.3 μM): 1331.12 ± 53.30
- Nucleus area (%) ([1]; 0.3 μM): 120.23 ± 5.49%
- Mitochondrial transmembrane potential ([1]; 0.3 μM): 117.76 ± 1.87

Compound: O=C(/C=C/c1cccs1)NC(NC(=S)NC1CCCCC1)C(Cl)(Cl)Cl (stereo not drawn) [Example 6, (2E)-3-(2-thienyl)-N-(1-cyclohexylaminothio formylamino-2,2,2-trichloroethyl)-2-acrylamide]
- Survival rate (%) of Cardiomyocyte [2, 4]: 76 ± 7%
- Survival rate (%) of Cardiomyocyte [2, 5]: 70 ± 6%
- Survival rate (%) of Cardiomyocyte [2, 6]: 78 ± 9%
- inhibition at 300 µM (cardiomyocytes): 5.54 ± 3.61%
- light flux ([1]; 1 μM): 1077.08 ± 55.63
- Nucleus area (%) ([1]; 1 μM): 100.00 ± 4.63%
- Mitochondrial transmembrane potential ([1]; 1 μM): 112.92 ± 0.82

Compound: CC(C)NC(=S)NC(NC(=O)/C=C/c1cccs1)C(Cl)(Cl)Cl (stereo not drawn) [Example 7, (2E)-3-(2-thienyl)-N-[1-isopropylaminothioformylamino-2,2,2-trichloroethyl]-2-acrylamide]
- Survival rate (%) of Cardiomyocyte [2, 4]: 69 ± 5%
- Survival rate (%) of Cardiomyocyte [2, 5]: 70 ± 8%
- Survival rate (%) of Cardiomyocyte [2, 6]: 77 ± 11%
- inhibition at 300 µM (cardiomyocytes): 1.32 ± 3.42%

Compound: O=C(/C=C/c1cccs1)NC(NC(=S)Nc1ccccc1F)C(Cl)(Cl)Cl (stereo not drawn) [Example 8, (2E)-3-(2-thienyl)-N-[1-(2-fluoroanilino)thioformylamino-2,2,2-trichloroethyl]-2-acrylamide]
- inhibition at 300 µM (cardiomyocytes): 6.82 ± 1.21%

Compound: CC(C)OCCCNC(=S)NC(NC(=O)/C=C/c1cccs1)C(Cl)(Cl)Cl (stereo not drawn) [Example 9, (2E)-3-(2-thienyl)-N-[1-(3-isopropoxypropylamino)thioformylamino-2,2,2-trichloroethyl]-2-acrylamide]
- inhibition at 300 µM (cardiomyocytes): 5.3 ± 0.95%

Compound: COC(=O)c1ccccc1NC(=S)NC(NC(=O)/C=C/c1cccs1)C(Cl)(Cl)Cl (stereo not drawn) [Example 10, (2E)-3-(2-thienyl)-N-[1-(2-methoxyformylanilino)thioformylamino-2,2,2-trichloroethyl]-2-acrylamide]
- inhibition at 300 µM (cardiomyocytes): 3.24 ± 1.7%

Compound: O=C(/C=C/c1cccs1)NC(NC(=S)NC1CCCCCC1)C(Cl)(Cl)Cl (stereo not drawn) [Example 11, (2E)-3-(2-thienyl)-N-(1-cycloheptylaminothioformylamino-2,2,2-trichloroethyl)-2-acrylamide]
- inhibition at 300 µM (cardiomyocytes): 7.62 ± 5.77%

Compound: CS/C(=N\C(NC(=O)/C=C/c1cccs1)C(Cl)(Cl)Cl)Nc1cccc2cccnc12 (stereo not drawn) [Example 14, (2E)-3-(2-thienyl)-N-[1-(8-quinolylamino)methylthiomethenylamino-2,2,2-trichloroethyl]-2-acrylamide]
- inhibition at 300 µM (cardiomyocytes): 8.34 ± 5.78%

Compound: C/C=C(/C)C(=O)O[C@H]1C(C)=C2[C@H]([C@@H]1OC(=O)CCCCCCC)[C@@](C)(OC(C)=O)C[C@H](OC(=O)CCC)[C@@]1(O)[C@H]2OC(=O)[C@@]1(C)O [TG, thapsigargin, reference compound]
- Survival rate (%) of Cardiomyocyte ([2]; TG alone 0.4 uM (apoptosis inducer)): 59 ± 1.1%

Compound: (2E)-3-(2-thienyl)-N-[1-(1-morpholinyl)thioformyl amino-2,2,2-trichloroethyl]-2-acrylamide [Example 12]
- Survival rate (%) of Cardiomyocyte [2, 3]: 79 ± 7%
- Survival rate (%) of Cardiomyocyte [2, 4]: 80 ± 9%
- Survival rate (%) of Cardiomyocyte [2, 5]: 83 ± 11%
- Inhibition rate (%) of cardiomyocytes (cardiomyocytes): 10.44 ± 5.66%
- Nucleus area (%) ([1]; 10 μM): 102.93 ± 5.12%
- Mitochondrial transmembrane potential ([1]; 10 μM): 133.11 ± 6.30

Compound: (2E)-3-(2-thienyl)-N-[1-(4-methylpiperazinyl)thioformylamino-2,2,2-trichloroethyl]-2-acrylamide [Example 13]
- Survival rate (%) of Cardiomyocyte [2, 3]: 72 ± 3%
- Survival rate (%) of Cardiomyocyte [2, 4]: 71 ± 3%
- Survival rate (%) of Cardiomyocyte [2, 5]: 67 ± 3%
- Inhibition rate (%) of cardiomyocytes (cardiomyocytes): 1.66 ± 2.70%
- Mitochondrial transmembrane potential ([1]; 3 μM): 116.41 ± 0.64
